Data: patent US6706664B1, “Benzoxazole compounds, process for the preparation thereof and herbicides” (UBE Industries, Ltd., priority 1999, dated 2004)

Key:
Set-up in all cases: key: 0: normal development; 1: Less damaged; 2: Slightly damaged; 3: Moderately damaged; 4: Severely damaged; 5: All killed
flat sedge = experiment: Herbicidal test for paddy field; assay type: in vivo, Cyperus serotinus; conditions: paddy field pot, 500 g/ha dropwise at 1.5 leaf stage of barnyardgrass, 3 weeks, rank vs non-treated
Procedure: Wagner pots, each having an area of 1/5000 are, were packed with Ube soil (alluvial soil) and planted with seeds or tubers of young rice plant, barnyardgrass, bulrush, flat sedge and monochoria. Then, the pots were filled with water to a depth of 3 cm.
Each wettable powder of the desired compounds (I) shown in Table 1 prepared in accordance with Example 2 was diluted with water containing a surfactant (0.05%) and subjected to dropwise addition treatment by using pipet so that an effective concentration of the compound (I) in each herbicide became 500 g/ha at 1.5 leaf stage of barnyardgrass.
These plants were controlled in a glass house at an average temperature of 25° C. for 3 weeks, and then herbicidal effects thereof were investigated.
The herbicidal effects are evaluated according to the following 6 ranks as compared with non-treated district.
(0: normal development, 1: Less damaged, 2: Slightly damaged, 3: Moderately damaged, 4: Severely damaged, 5: All killed).

barnyardgrass [1] = experiment: Herbicidal test for paddy field; assay type: in vivo, Echinochloa crusgalli; conditions: paddy field pot, 500 g/ha dropwise at 1.5 leaf stage of barnyardgrass, 3 weeks, rank vs non-treated
Outline: (§1)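 Ube alluvial soil in pots flooded to 3 cm water depth, sown with seeds or tubers. Wettable powder diluted in water with 0.05% surfactant was dripped onto the water at 500 g/ha when barnyardgrass reached the 1.5-leaf stage. After 3 weeks in a glasshouse at an average of 25° C, damage was scored 0 (normal) to 5 (all killed) against untreated pots.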

monochoria = experiment: Herbicidal test for paddy field; assay type: in vivo, Monochoria vaginalis; conditions: paddy field pot, 500 g/ha dropwise at 1.5 leaf stage of barnyardgrass, 3 weeks, rank vs non-treated
Outline: as §1

young rice plant = experiment: Herbicidal test for paddy field; assay type: in vivo; conditions: paddy field pot, 500 g/ha dropwise at 1.5 leaf stage of barnyardgrass, 3 weeks, rank vs non-treated
Outline: as §1

bulrush = experiment: Herbicidal test for paddy field; assay type: in vivo, Scrips juncoides; conditions: paddy field pot, 500 g/ha dropwise at 1.5 leaf stage of barnyardgrass, 3 weeks, rank vs non-treated
Outline: as §1

Large crabgrass = experiment: Soil treatment test for upland field; assay type: in vivo, Digitaria adscendens; conditions: 500 g/ha, glass house 25° C., 3 weeks
Outline: (§2)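 Seeds planted in Wagner pots of Ube soil (alluvial) and covered. Wettable powder diluted in 0.05% surfactant water, sprayed uniformly onto soil at 500 g/ha effective rate. Grown 3 weeks, glasshouse, mean 25° C, then damage rated visually 0–5.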

common lambsquartes = experiment: Soil treatment test for upland field; assay type: in vivo, Chenopodium album; conditions: 500 g/ha, glass house 25° C., 3 weeks
Outline: as §2

barnyardgrass [2] = experiment: Soil treatment test for upland field; assay type: in vivo, Echinochloa crusgalli; conditions: 500 g/ha, glass house 25° C., 3 weeks
Outline: as §2

annual bluegrass = experiment: Soil treatment test for upland field; assay type: in vivo, Poa annua; conditions: 500 g/ha, glass house 25° C., 3 weeks
Outline: as §2

livid amaranth = experiment: Soil treatment test for upland field; assay type: in vivo, Amaranthus lividus; conditions: 500 g/ha, glass house 25° C., 3 weeks
Outline: as §2

green foxtail = experiment: Soil treatment test for upland field; assay type: in vivo, Setaria viridis; conditions: 500 g/ha, glass house 25° C., 3 weeks
Outline: as §2

wheat = experiment: Soil treatment test for upland field; assay type: in vivo; conditions: 500 g/ha, glass house 25° C., 3 weeks
Outline: as §2

corn = experiment: Soil treatment test for upland field; assay type: in vivo; conditions: 500 g/ha, glass house 25° C., 3 weeks
Outline: as §2

soybean = experiment: Soil treatment test for upland field; assay type: in vivo; conditions: 500 g/ha, glass house 25° C., 3 weeks
Outline: as §2

solgum = experiment: Soil treatment test for upland field; assay type: in vivo; conditions: 500 g/ha, glass house 25° C., 3 weeks
Outline: as §2

cotton = experiment: Soil treatment test for upland field; assay type: in vivo; conditions: 500 g/ha, glass house 25° C., 3 weeks
Outline: as §2

sugar beat = experiment: Soil treatment test for upland field; assay type: in vivo; conditions: 500 g/ha, glass house 25° C., 3 weeks
Outline: as §2

blackgrass = experiment: Soil treatment test for upland field; assay type: in vivo, Alopecurus aegualis; conditions: 500 g/ha, glass house 25° C., 3 weeks
Outline: as §2

velvetleaf = experiment: Soil treatment test for upland field; assay type: in vivo, Abutilon theophrasti; conditions: 500 g/ha, glass house 25° C., 3 weeks
Outline: as §2

SMILES	Effect Flat sedge (flat sedge)	Effect Barnyardgrass (barnyardgrass [1])	Effect Monochoria (monochoria)	Effect Young rice plant (young rice plant)	Effect Bulrush (bulrush)	Effects Large crabgrass (Large crabgrass)	Effects Common lambsquarters (common lambsquartes)	Effects Barnyardgrass (barnyardgrass [2])	Effects Annual bluegrass (annual bluegrass)	Effects Livid amaranth (livid amaranth)	Effects Green foxtail (green foxtail)	Effects Wheat (wheat)	Effects Corn (corn)	Effects Soybean (soybean)	Effects Solgum (solgum)	Effects Cotton (cotton)	Effects Sugar beat (sugar beat)	Effects Blackgrass (blackgrass)	Effects Velvetleaf (velvetleaf)
CCCC(Oc1cccc(C#N)c1)c1nc2cc(C#N)ccc2o1 (centres unmarked) [Compound 393]	5	4	5	0	5	–	–	–	–	–	–	–	–	–	–	–	–	–	–
CCC(Oc1ccc(F)c(C(F)(F)F)c1)c1nc2cc(C#N)c(F)cc2o1 (centres unmarked) [Compound 346]	5	5	5	2	5	–	–	–	–	–	–	–	–	–	–	–	–	–	–
CCC(Oc1cccc(C#N)c1)c1nc2cc(C#N)ccc2o1 (centres unmarked) [Compound 392]	5	5	5	0	5	5	3	2	4	5	5	0	1	0	5	0	2	–	–
CCCC(Oc1ccc(F)c(C(F)(F)F)c1)c1nc2cc(F)c(F)cc2o1 (centres unmarked) [Compound 286]	3	4	5	3	5	–	–	–	–	–	–	–	–	–	–	–	–	–	–
CCC(Oc1ccc(F)c(C(F)(F)F)c1)c1nc2cc(C#N)ccc2o1 (centres unmarked) [Compound 189]	5	5	5	2	5	–	–	–	–	–	–	–	–	–	–	–	–	–	–
CC(Oc1cccc(C(F)(F)F)c1)c1nc2cc(Cl)ccc2o1 (centres unmarked) [Compound 138]	3	2	3	0	2	4	3	1	3	5	2	0	0	0	0	0	–	5	–
CCC(Oc1cccc(OC(F)(F)F)c1)c1nc2cc(C#N)ccc2o1 (centres unmarked) [Compound 396]	5	2	5	2	5	5	5	5	5	5	5	2	2	2	3	–	5	5	5
CCCC(Oc1ccc(F)c(C(F)(F)F)c1)c1nc2cc(C#N)c(F)cc2o1 (centres unmarked) [Compound 348]	4	4	5	2	4	–	–	–	–	–	–	–	–	–	–	–	–	–	–
